This note sets out measurements from ChEMBL document CHEMBL4814079, “Structure-Activity Relationship for the Picolinamide Antibacterials that Selectively Target Clostridioides difficile” (ACS Med Chem Lett, 2021).

Values after ≈ are worked out from the molar mass of the structure shown. Some results are limits rather than exact numbers.

For one data set, the system named is Clostridioides difficile. Briefly: Antibacterial activity against Clostridium difficile ATCC 43255 assessed as reduction in bacterial growth measured after 48 hrs by CLSI based broth microdilution method. The format is functional. In general terms: In broth dilution the organism is exposed to a series of concentrations in liquid medium.
In the next data set the test system is Staphylococcus aureus. Briefly: Antibacterial activity against […] Staphylococcus aureus ATCC 29213 assessed as reduction in bacterial growth measured after 48 hrs by CLSI based broth microdilution method. The format is functional.
Data set [1] is described as follows: Selectivity index, ratio of MIC of […] Staphylococcus aureus ATCC 29213 to MIC of Clostridium difficile ATCC 43255. The format is functional.
The next data set concerns HeLa. Description: Cytotoxicity against human HeLa cells assessed as reduction in cell viability incubated for 16 hrs by XTT assay. The format is cell-based. (In general: Tetrazolium dyes change colour on reduction, which living cells bring about.)
A further data set relates to Bacteroides fragilis. Briefly: Antibacterial activity against gut Bacteroides fragilis HM-709 assessed as reduction in bacterial growth measured after 48 hrs by CLSI based broth microdilution method. The class given is organism-based. To be noted: in vitro.
For another data set, the system named is Bifidobacterium longum. Description: Antibacterial activity against gut Bifidobacterium longum HM-846 assessed as reduction in bacterial growth measured after 48 hrs by CLSI based broth microdilution method. The format is organism-based.
A further data set relates to Corynebacterium. Description: Antibacterial activity against gut Corynebacterium HM-784 assessed as reduction in bacterial growth measured after 48 hrs by CLSI based broth microdilution method. The format is organism-based.
The next data set deals with Fusobacterium nucleatum. Briefly: Antibacterial activity against gut Fusobacterium nucleatum HM-992 assessed as reduction in bacterial growth measured after 48 hrs by CLSI based broth microdilution method. As to conditions: in vitro. The class given is organism-based.
Data set [2] is described as follows: Antibacterial activity against gut Limosilactobacillus-reuteri HM-102 assessed as reduction in bacterial growth measured after 48 hrs by CLSI based broth microdilution method.
A further data set deals with Lactobacillus gasseri. Briefly: Antibacterial activity against gut Lactobacillus gasseri HM-664 assessed as reduction in bacterial growth measured after 48 hrs by CLSI based broth microdilution method. The class given is organism-based. To be noted: in vitro.
The next data set deals with Veillonella. Briefly: Antibacterial activity against gut Veillonella sp HM-49 assessed as reduction in bacterial growth measured after 48 hrs by CLSI based broth microdilution method. As to conditions: in vitro. The class given is organism-based.
For the next data set, the system named is Eubacterium sp. Description: Antibacterial activity against gut Eubacterium sp. HM-178 assessed as reduction in bacterial growth measured after 48 hrs by CLSI based broth microdilution method. The format is organism-based.
Data set [3] is described as follows: Drug excretion in CD1 mouse feces at 20 mg/kg, po measured upto 8 hrs by LC-MS/MS analysis. To be noted: in vivo. The format is ADME, organism-based.
The nature of data set [4]: Plasma concentration in CD1 mouse at 20 mg/kg, po measured upto 8 hrs by LC-MS/MS analysis. The format is ADME, organism-based. As to conditions: in vivo, BLD = below limit of detection.
A short description of data set [5]: Ratio of drug excretion in CD-1 mouse feces to MIC for antibacterial activity against Clostridium difficile ATCC 43255. The class given is toxicity. To be noted: in vivo.

For `O=C(Nc1ncco1)c1cc(-c2ccc(Cl)cc2)ccn1`, the MIC was determined as 4 µg/mL (≈ 13.3 µM) with Clostridioides difficile and 128 µg/mL (≈ 427 µM) in the data set with Staphylococcus aureus. The Ratio in data set [1] is 32.
Regarding `O=C(Nc1ncco1)c1cc(-c2ccc(C(F)(F)F)cc2)ccn1`, the MIC turned out to be 0.25 µg/mL (≈ 0.75 µM) in the data set on Clostridioides difficile and 128 µg/mL (≈ 384 µM) in the data set with Staphylococcus aureus. Moreover, the Ratio in data set [1] was 512.
For `O=C(Nc1ncco1)c1cc(-c2ccc(F)cc2)ccn1` the same measures were 1 µg/mL (≈ 3.53 µM), 64 µg/mL (≈ 226 µM) and 64.
The like results for `O=C(Nc1ncco1)c1cc(Oc2ccc(F)c(F)c2)ccn1` were, in that order, 1 µg/mL (≈ 3.15 µM), 64 µg/mL (≈ 202 µM) and 64.
In the case of `O=C(O)c1ccc2oc(NC(=O)c3cc(Oc4ccc(F)c(F)c4)ccn3)nc2c1` [listing 1 of 2 here], in data set [1], the Ratio amounted to 128.
What is called IC50 is the point on the concentration scale where inhibition reaches its midpoint. With `O=C(O)c1ccc2oc(NC(=O)c3cc(-c4ccc(OC(F)(F)F)cc4)ccn3)nc2c1`, the 50% inhibitory concentration (IC50) in the data set on HeLa worked out at 79.9 µg/mL (≈ 180 µM). The MIC came out at 0.03 µg/mL (≈ 0.0677 µM) in the data set on Clostridioides difficile and 8 µg/mL (≈ 18 µM) in the data set with Staphylococcus aureus. Further, in data set [1], the Ratio was 256.
In the case of `O=C(Nc1ncco1)c1cc(-c2cc(F)cc(F)c2)ccn1`, the IC50 in the data set on HeLa turned out to be 40.1 µg/mL (≈ 133 µM). The MIC came to 1 µg/mL (≈ 3.32 µM) in the data set on Clostridioides difficile and 64 µg/mL (≈ 212 µM) in the data set on Staphylococcus aureus. In addition, the Ratio in data set [1] amounted to 64.
As to `Cc1ncc([N+](=O)[O-])n1CCO` [METRONIDAZOLE], the MIC with Bacteroides fragilis was 1 µg/mL (≈ 5.84 µM); with Bifidobacterium longum it was 1 µg/mL (≈ 5.84 µM); in the data set on Corynebacterium, > 32 µg/mL; in the data set on Fusobacterium nucleatum it was 2 µg/mL (≈ 11.7 µM); in data set [2], > 32 µg/mL; in the data set with Lactobacillus gasseri it was > 32 µg/mL. In addition, the MIC stood at 2 µg/mL (≈ 11.7 µM) with Veillonella and 1 µg/mL (≈ 5.84 µM) in the data set with Eubacterium sp..
Take `CN[C@H](CC(C)C)C(=O)N[C@H]1C(=O)N[C@@H](CC(N)=O)C(=O)N[C@H]2C(=O)N[C@H]3C(=O)N[C@H](C(=O)N[C@H](C(=O)O)c4cc(O)cc(O)c4-c4cc3ccc4O)[C@H](O)c3ccc(c(Cl)c3)Oc3cc2cc(c3O[C@@H]2O[C@H](CO)[C@@H](O)[C@H](O)[C@H]2O[C@H]2C[C@](C)(N)[C@H](O)[C@H](C)O2)Oc2ccc(cc2Cl)[C@H]1O` [VANCOMYCIN]: the MIC in the data set with Bacteroides fragilis is 16 µg/mL (≈ 11 µM); in the data set with Bifidobacterium longum, 0.25 µg/mL (≈ 0.173 µM); in the data set with Fusobacterium nucleatum, 0.25 µg/mL (≈ 0.173 µM); in data set [2], > 32 µg/mL; in the data set on Lactobacillus gasseri, 1 µg/mL (≈ 0.69 µM); with Veillonella it was > 32 µg/mL. The MIC in the data set with Eubacterium sp. was 2 µg/mL (≈ 1.38 µM).
With `O=C(Nc1ncco1)c1cc(-c2cccc(C(F)(F)F)c2)ccn1`, the figures for the MIC with Clostridioides difficile and in the data set with Staphylococcus aureus were 0.5 µg/mL (≈ 1.5 µM) and 64 µg/mL (≈ 192 µM), respectively. Also, the Ratio in data set [1] was 128.
For `COC(=O)c1ccc2oc(NC(=O)c3cc(Oc4ccc(F)c(F)c4)ccn3)nc2c1` the same measures were 0.25 µg/mL (≈ 0.588 µM), 64 µg/mL (≈ 150 µM) and 256.
Consider `O=C(O)c1ccc2oc(NC(=O)c3cc(-c4cccc(OC(F)(F)F)c4)ccn3)nc2c1`, for which the IC50 in the data set on HeLa is 124 µg/mL (≈ 279 µM). The MIC with Clostridioides difficile is 0.03 µg/mL (≈ 0.0677 µM); in the data set on Staphylococcus aureus it was 16 µg/mL (≈ 36.1 µM). For the same compound, the Ratio in [1] was 512.
Turning to `COc1ccc(Oc2ccnc(C(=O)Nc3ncco3)c2)cc1`, the figures for the MIC in the data set with Clostridioides difficile and with Staphylococcus aureus were 1 µg/mL (≈ 3.21 µM) and ≥ 256 µg/mL, respectively. The Ratio in data set [1] is > 256.
Regarding `O=C(Nc1ncco1)c1cc(Oc2cccc(OC(F)(F)F)c2)ccn1`, the MIC in the data set with Clostridioides difficile is 1 µg/mL (≈ 2.74 µM); in the data set on Staphylococcus aureus it was 64 µg/mL (≈ 175 µM); in the data set with Bacteroides fragilis it was 8 µg/mL (≈ 21.9 µM); in the data set with Bifidobacterium longum, 16 µg/mL (≈ 43.8 µM); with Corynebacterium, > 16 µg/mL; in the data set with Fusobacterium nucleatum, 8 µg/mL (≈ 21.9 µM). Moreover, the MIC is 4 µg/mL (≈ 11 µM) in data set [2], > 16 µg/mL in the data set with Lactobacillus gasseri, 16 µg/mL (≈ 43.8 µM) in the data set with Veillonella and 8 µg/mL (≈ 21.9 µM) with Eubacterium sp.. The Ratio came out at 64 in data set [1] and 49 in data set [5]. The compound further had a Drug excretion in [3] of 49 µg/g. The Cp entry in data set [4] is on record as “Bld”.
As to `O=C(Nc1ncco1)c1cc(-c2ccc(OC(F)(F)F)cc2)ccn1`, the MIC stood at 0.25 µg/mL (≈ 0.716 µM) with Clostridioides difficile and 125 µg/mL (≈ 358 µM) in the data set with Staphylococcus aureus. In data set [1], the Ratio is 512.
For `O=C(Nc1ncco1)c1cc(-c2ccc(F)c(Cl)c2)ccn1` the same measures were 0.25 µg/mL (≈ 0.787 µM), 128 µg/mL (≈ 403 µM) and 512.
The like results for `O=C(Nc1ncco1)c1cc(Oc2ccc(SC(F)(F)F)cc2)ccn1` were, in that order, 1 µg/mL (≈ 2.62 µM), ≥ 256 µg/mL and > 256.
As to `O=C([O-])c1ccc2oc(NC(=O)c3cc(Oc4cccc(OC(F)(F)F)c4)ccn3)nc2c1.[Na+]`, the MIC with Clostridioides difficile was 0.125 µg/mL; with Staphylococcus aureus it was 16 µg/mL; in the data set on Bacteroides fragilis, 4 µg/mL; in the data set with Bifidobacterium longum, 16 µg/mL; in the data set on Corynebacterium, 8 µg/mL; in the data set on Fusobacterium nucleatum, 4 µg/mL. Moreover, the MIC in data set [2] was 4 µg/mL; with Lactobacillus gasseri, > 16 µg/mL; in the data set with Veillonella, 16 µg/mL; in the data set with Eubacterium sp., 16 µg/mL. In addition, the Ratio came to 128 in data set [1] and 108 in data set [5]. The compound further displayed a Drug excretion in [3] of 13 µg/g. For the same compound, in data set [4], the Cp entry was “Bld”.
As for `CCc1c(Cl)c(O)c(Cl)c(O)c1C(=O)O[C@H]1[C@H](O)[C@H](OC)[C@H](OC/C2=C\C=C\C[C@H](O)/C(C)=C/[C@H](CC)[C@@H](O[C@@H]3OC(C)(C)[C@@H](OC(=O)C(C)C)[C@H](O)[C@@H]3O)/C(C)=C/C(C)=C/C[C@@H]([C@@H](C)O)OC2=O)O[C@@H]1C` [FIDAXOMICIN], the MIC in the data set with Clostridioides difficile is 0.0625 µg/mL (≈ 0.0591 µM); in the data set with Bacteroides fragilis it was > 32 µg/mL; with Bifidobacterium longum, < 0.01 µg/mL; with Corynebacterium it was < 0.0625 µg/mL; in the data set with Fusobacterium nucleatum, < 0.0625 µg/mL; in [2], > 32 µg/mL. In addition, the MIC in the data set on Lactobacillus gasseri worked out at 2 µg/mL (≈ 1.89 µM); in the data set with Veillonella, 8 µg/mL (≈ 7.56 µM); in the data set with Eubacterium sp., 16 µg/mL (≈ 15.1 µM).
On to `O=C(O)c1ccc2oc(NC(=O)c3cc(Oc4ccc(F)c(F)c4)ccn3)nc2c1` [listing 2 of 2 here], for which the figures for the MIC in the data set with Clostridioides difficile and in the data set on Staphylococcus aureus were 0.5 µg/mL (≈ 1.22 µM) and 64 µg/mL (≈ 156 µM), respectively.
On to `O=C(Nc1ncco1)c1cc(-c2cccc(OC(F)(F)F)c2)ccn1`, for which the values for the MIC in the data set on Clostridioides difficile and in the data set with Staphylococcus aureus were 0.5 µg/mL (≈ 1.43 µM) and ≥ 256 µg/mL, respectively. Moreover, in data set [1], the Ratio is > 512.
In the case of `O=C(Nc1ncco1)c1cc(Oc2cccc(F)c2)ccn1`, the MIC is 1 µg/mL (≈ 3.34 µM) in the data set on Clostridioides difficile and ≥ 256 µg/mL with Staphylococcus aureus. Besides, the results for the Ratio in data set [1] and in data set [5] were > 256 and 2.4, respectively. The compound also gave a Drug excretion in data set [3] of 2.4 µg/g. In data set [4], the Cp result is given as “Bld”.
For `O=C(Nc1ncco1)c1cc(Oc2ccc(OC(F)(F)F)cc2)ccn1`, the MIC in the data set with Clostridioides difficile worked out at 1 µg/mL (≈ 2.74 µM); in the data set with Staphylococcus aureus it was 128 µg/mL (≈ 350 µM). In [1], the Ratio turned out to be 128.
Take `O=C(Nc1ncco1)c1ccnc(Oc2ccc(Cl)c(Cl)c2)c1`: the IC50 in the data set on HeLa is 37 µg/mL (≈ 106 µM).
